The structures appear in SMILES notation.

Results on 3 compounds are retold here after patent publication US9127037B2, “Crystalline rostafuroxin” (ROSTAQUO S.P.A., priority 2005, dated 2015).

In data set [1] the target is purified sodium, potassium ATPase enzyme (Na—K ATPase). As to conditions: in vitro; read-out: IC50, displacement of ouabain from its binding sites on purified Na—K ATPase; cited from earlier work.
The subject of data set [2] is rats made hypertensive by chronic infusion of ouabain. The following applies: ouabain 50 microg/kg/day chronic infusion, per os 0.1-1 microg/kg/day for 4 weeks; cited from earlier work.
Data set [3] concerns Na—K pump. The following applies: cultured renal cells, cited from earlier work.
Data set [4] deals with other receptors involved in blood pressure regulation or hormonal control. As to conditions: in vitro; cited from earlier work.
Data set [5] concerns normotensive rats. As to conditions: cited from earlier work.
The nature of data set [6]: Solubility in water. In kind it is physicochemical. Here is the method:
A mixture of 5.00 grams of rostafuroxin (amorphous or any other crystalline form) and 50 ml of absolute ethanol was stirred until clearness. This solution was than added dropwise into 250 ml of water at room temperature under vigorous stirring at room temperature. At the end of addiction, the mixture was filtered and washed with deionized water. The product was dried under vacuum at 40° C. for 16 hours. The product contained 10.6% of water, corresponding to about 2.5 moles of water per mole of rostafuroxin (rostafuroxin.2.5H2O). Yield: 55%.

Broadly, the IC50 is the concentration needed to halve the response being measured. As for `C[C@]12CC[C@H](O)C[C@H]1CC[C@@H]1[C@@H]2CC[C@]2(C)[C@@](O)(c3ccoc3)CC[C@]12O` [rostafuroxin, 17β-(3-furyl)-5β-androstane-3β,14β,17α-triol], the IC50 in data set [1] was 1700 nM. For the same compound, in data set [2], the “increase in blood pressure caused by ouabain” value was “abolished” and the “increase in renal Na—K ATPase activity caused by ouabain” value is “abolished”. Also, in data set [3], the “concentrations that abolished the ouabain-dependent increase in the Na—K pump rate” value is 10^−14 to 10^−9 M and the “stimulation of the Na—K pump at Vmax (same effect as ouabain)” value is recorded as “showed the same effect at micromolar concentration”. Also, in data set [4], the “interaction with other receptors involved in blood pressure regulation or hormonal control” value was “without interacting”. Also, in data set [5], the blood pressure entry is “did not affect” and the “renal Na—K ATPase activity” value is on record as “did not affect”.

Regarding `CC12CCC(O)CC1CCC1C2CCC2(C)C(O)(c3ccoc3)CCC12O` (stereo not drawn) [Form F, 17β-(3-furyl)-5β-androstane-3β,14β,17α-triol], the solubility in water entry in data set [6] was “low solubility”.

`C[C@@H]1O[C@@H](O[C@H]2C[C@@H](O)[C@]3(CO)[C@H]4[C@H](O)C[C@]5(C)[C@@H](C6=CC(=O)OC6)CC[C@]5(O)[C@@H]4CC[C@]3(O)C2)[C@H](O)[C@H](O)[C@H]1O` [ouabain, reference compound]: in data set [3] (incubation for 5 days), the “concentration that stimulated the Na—K pump at Vmax” value was 10^−10 to 10^−8 M.
